Tests used:
[1] = published findings; 59 (Mygind et al. 2005); cited from earlier work
[2] = test system: Listeria monocytogenes; test: TEM quantification of cells with visible damage; assay type: cell-based
Method: (§1) Suspensions of gram-positive bacteria were prepared by taking bacterial colonies out of overnight grown agar plates and resuspending them in MHB. The suspension was set to an OD625 extinction of 0.15–0.20 corresponding to a bacterial cell density of approximately 2 × 10^8 CFU/mL. Then, 3 × 1 mL of suspension was transferred into a 2-mL reaction tube and mixed with either plectasin, CASPON-plectasin, or PBS buffer to obtain volume conditions. The concentration for plectasin was 4 x MIC, and CASPON-plectasin was of the same molar quantity as plectasin. After incubation, the bacterial suspensions were washed with PBS three times, using mild centrifugation conditions for each wash cycle (3,000 g, 15 minutes) to avoid cell damage. Prior to sample preparation, mesh copper grids were pretreated with pioloform film and a thin carbon layer. Additionally, the grids were plasma-cleaned for 10 seconds. All samples were prepared by a negative staining procedure. Sample droplets were placed on copper grids for 10 minutes. Afterward, the grids were placed on a 2% glutaraldehyde in 0.1 M phosphate buffer, washed three times with HQ water, and stained with 1% uranyl acetate for 30 seconds. Grids were then analyzed in the TEM FEI Tecnai G^2 200 kV (Thermo Fisher Scientific, Waltham, MA) under high vacuum with 160 kV. For quantification, each condition (untreated, plectasin-treated, and CASPON-plectasin-treated) and each bacterial strain (the four mentioned above) were analyzed using two independent grid squares per biological duplicate, thus yielding a total of four grid squares per condition. Grid squares comprising ≥11 cells were selected for analysis, and the cells were counted and categorized as “no visible damage” or “visible damage”. Percentages and standard deviations were subsequently calculated for each condition. An example of counting the cells can be found in the supplementary material (Fig. S2).

[3] = test system: Staphylococcus aureus; test: TEM quantification of cells with visible damage; assay type: cell-based
Method: as §1

[4] = test system: Streptococcus pneumoniae; test: TEM quantification of cells with visible damage; assay type: cell-based
Method: as §1

[5] = test system: Enterococcus faecalis; test: TEM quantification of cells with visible damage; assay type: cell-based
Method: as §1

For `CC[C@H](C)[C@@H]1NC(=O)[C@H](CO)NC(=O)[C@H](CCCCN)NC(=O)[C@@H]2CSSC[C@@H](C(=O)N[C@@H](Cc3ccc(O)cc3)C(=O)O)NC(=O)[C@H](CCCCN)NC(=O)[C@@H]3CSSC[C@H](NC(=O)[C@H](CCC(N)=O)NC(=O)[C@H](CCSC)NC(=O)[C@H](CC(=O)O)NC(=O)[C@H](CC(=O)O)NC(=O)[C@H](CCC(=O)O)NC(=O)[C@H](CC(=O)O)NC(=O)[C@H](Cc4c[nH]c5ccccc45)NC(=O)[C@@H]4CCCN4C(=O)CNC(=O)[C@H](CC(N)=O)NC(=O)[C@@H](NC(=O)CNC(=O)[C@H](Cc4ccccc4)NC(=O)CN)CSSC[C@H](NC(=O)[C@H](Cc4ccc(O)cc4)NC(=O)CNC(=O)CNC(=O)[C@H](CCCCN)NC(=O)[C@H](Cc4ccc(O)cc4)NC(=O)CNC(=O)[C@H](CCCCN)NC1=O)C(=O)N[C@@H](C)C(=O)N[C@@H](CCCCN)C(=O)NCC(=O)NCC(=O)N[C@@H](Cc1ccccc1)C(=O)N[C@@H](C(C)C)C(=O)N3)C(=O)N[C@@H](Cc1c[nH]cn1)C(=O)N[C@@H](CC(N)=O)C(=O)N[C@@H](Cc1c[nH]cn1)C(=O)N2` [Plectasin, plectasin], the “maximum solubility of plectasin” value [1] is given as ~ 1.6 g/L, the “No visible damage (%)” value ([2]; Grid Square 1) is given as 9.09% and the “Visible damage (%)” value ([2]; Grid Square 1) is given as 90.91%. The “No visible damage (%)” value ([2]; Grid Square 2) was 34.48%, the “Visible damage (%)” value ([2]; Grid Square 2) was 65.52% and the “No visible damage (%)” value ([2]; Grid Square 3) was 18.18%. For the same molecule, the “Visible damage (%)” value ([2]; Grid Square 3) was 81.82%, the “No visible damage (%)” value ([2]; Grid Square 4) was 18.75% and the “Visible damage (%)” value ([2]; Grid Square 4) was 81.25%. The “cells with visible damage” value ([2]; negative staining, plectasin 4 x MIC, CASPON-plectasin same molar quantity, mean ± SD of four grid squares (two biological replicates), untreated 6.97, SD) was 79.87% ± 9.13%, the “cells with no visible damage” value ([2]; negative staining, plectasin 4 x MIC, CASPON-plectasin same molar quantity, mean ± SD of four grid squares, untreated 93.03% ± 4.81%) was 20.13% and the “No visible damage (%)” value ([3]; Grid Square 1) was 7.69%. The “Visible damage (%)” value ([3]; Grid Square 1) was 92.31%, the “No visible damage (%)” value ([3]; Grid Square 2) was 16.67% and the “Visible damage (%)” value ([3]; Grid Square 2) was 83.33%. For the same molecule, the “No visible damage (%)” value ([3]; Grid Square 3) was 5.88%, the “Visible damage (%)” value ([3]; Grid Square 3) was 94.12% and the “No visible damage (%)” value ([3]; Grid Square 4) was 11.76%. For the same molecule, the “Visible damage (%)” value ([3]; Grid Square 4) was 88.24%, the “cells with visible damage” value ([3]; negative staining, plectasin 4 x MIC, CASPON-plectasin same molar quantity, mean ± SD of four grid squares (two biological replicates), untreated 10.10, SD) was 89.50% ± 4.15% and the “cells with no visible damage” value ([3]; negative staining, plectasin 4 x MIC, CASPON-plectasin same molar quantity, mean ± SD of four grid squares, untreated 89.90% ± 4.88%) was 10.50%. For the same molecule, the “No visible damage (%)” value ([4]; Grid Square 1) was 11.11%, the “Visible damage (%)” value ([4]; Grid Square 1) was 88.89% and the “No visible damage (%)” value ([4]; Grid Square 2) was 16.22%. The “Visible damage (%)” value ([4]; Grid Square 2) was 83.78%, the “No visible damage (%)” value ([4]; Grid Square 3) was 13.33% and the “Visible damage (%)” value ([4]; Grid Square 3) was 86.67%. The “No visible damage (%)” value ([4]; Grid Square 4) was 8.33%, the “Visible damage (%)” value ([4]; Grid Square 4) was 91.67% and the “cells with visible damage” value ([4]; negative staining, plectasin 4 x MIC, CASPON-plectasin same molar quantity, mean ± SD of four grid squares (two biological replicates), untreated 15.20, SD) was 87.75% ± 2.90%. For the same molecule, the “cells with no visible damage” value ([4]; negative staining, plectasin 4 x MIC, CASPON-plectasin same molar quantity, mean ± SD of four grid squares, untreated 84.80% ± 3.71%) was 12.25%, the “No visible damage (%)” value ([5]; Grid Square 1) was 29.41% and the “Visible damage (%)” value ([5]; Grid Square 1) was 70.59%. The “No visible damage (%)” value ([5]; Grid Square 2) was 28.57%, the “Visible damage (%)” value ([5]; Grid Square 2) was 71.43% and the “No visible damage (%)” value ([5]; Grid Square 3) was 21.05%. The “Visible damage (%)” value ([5]; Grid Square 3) was 78.95%, the “No visible damage (%)” value ([5]; Grid Square 4) was 27.78% and the “Visible damage (%)” value ([5]; Grid Square 4) was 72.22%. The “cells with visible damage” value ([5]; negative staining, plectasin 4 x MIC, CASPON-plectasin same molar quantity, mean ± SD of four grid squares (two biological replicates), untreated 4.07, SD) was 73.30% ± 3.31% and the “cells with no visible damage” value ([5]; negative staining, plectasin 4 x MIC, CASPON-plectasin same molar quantity, mean ± SD of four grid squares, untreated 95.93% ± 2.41%) was 26.70%.

Reference: paper PMC12096834, “Antimicrobial peptide plectasin recombinantly produced in Escherichia coli disintegrates cell walls of gram-positive bacteria, as proven by transmission electron and atomic force microscopy” (Journal of Bacteriology, 2025)
